Data taken from patent US11840495B2, “Compositions and methods related to di-substituted bicyclo[2.2.1] heptanamine-containing compounds” (The Broad Institute, Inc., priority 2020, dated 2023).
Counter-ions that a name gives are not always drawn. Like-named read-outs stand apart in the source and are kept apart here.

Key:
MUC1-fs = assay: Immunofluorescence imaging of MUC1-fs in P cells (Example 2); format: cell-based; settings: for EC50: 48 hr incubation, MUC1-fs; for Emax / ECMax (%): 48 hr; for Emax: DMSO = 0, JQ1 = −100% activity, in %; for ECMax (%): DMSO = 0, JQ1 (250 nM) = −100% activity
Protocol: (§1) P cells were seeded 24 hr prior to compound treatment at a density of 12,000 cells/well in 384 well Cell Carrier Ultra plates (6057308, Perkin Elmer), pre-coated with 0.25 mg/mL Synthemax II SC Substrate (3535, Corning). Compounds were used at 5 doses (35, 3.5, 0.35, 0.035 and 0.0035 μM) for the primary screen and 10 doses (16, 5.6, 1.8, 0.6, 0.21, 0.07, 0.02, 0.008, 0.002 and 0.0008 μM) for the following screens. The compounds, in two replicates, were transferred from compound source plates to the cell plates using the HighRes Pin Tool. DMSO was used as a negative control and JQ1 (250 nM) (a bromodomain inhibitor) was chosen as a positive control, based on earlier studies showing its potent effect on reducing total MUC1 mRNA levels (data not shown). After 48 hr incubation, cells were fixed for 20 min in 4% PFA (Electron Microscopy Sciences) in PBS, washed twice, then permeabilized (10 min) with 0.5% Triton-X100 (X100-100ML, Sigma-Aldrich) in PBS and washed once more. Cells were blocked for 10 min at RT with Blocking solution (100 mM Tris HCL pH8; 150 mM NaCL; 5 g/L Blocking Reagent [11096176001, Roche]), then incubated 90 min at RT with one of the following primary antibodies in Roche Blocking solution: 1:500, monoclonal Fab-A-VSH anti-MUC1-fs, AbD22655.2, Bio-Rad; 1:2000, monoclonal mouse anti-MUC1 (214D4), 05-652-KC, Millipore; 1:1000, monoclonal, Rabbit anti-GM130 (D6B1) XP, 12480, Cell signaling technology. The primary antibody cocktail was incubated at RT for 1.5 hr, followed by four PBS wash cycles. The secondary antibody cocktail contained four components that were all prepared at a 1:1000 dilution in the Roche blocking solution and consisted of Alexa Fluor® 488-conjugated AffiniPure F(ab′)2 Fragment Goat anti-Human IgG, 109-546-097, Jackson Immunoresearch; Alexa Fluor® 647-conjugated Goat anti-Rabbit IgG, A-21246, Thermo Fisher Scientific®; Alexa Fluor® 546 Goat anti-mouse IgG, A-21123, Thermo Fisher Scientific® and Hoechst 33342 stain (62249, Thermo Fisher Scientific®). The secondary antibody cocktail was incubated at RT for 45 min, followed by four PBS wash cycles. Finally, plates were sealed with a Plate Loc plate and stored in Liconic incubator at 10° C. until imaging. Following image analysis, three parameters were selected, i) MUC1-fs and ii) MUC1-wt total cytoplasm intensity (averaged per cell) and iii) cell number as was detected by Hoechst 33342 stained nuclei. The levels of MUC1-fs and MUC1-wt found following DMSO and JQ1 were defined as 0 and −100% activity, respectively. The values obtained for all compounds were normalized accordingly. Cell number was normalized to DMSO control.

MUC1-wt = assay: Immunofluorescence imaging of MUC1-wt in P cells (Example 2); format: cell-based; settings: for EC50: 48 hr incubation, MUC1-wt; for WT EMax / WT ECMax (%): 48 hr; for WT EMax: DMSO = 0, JQ1 = −100% activity, in %; for WT ECMax (%): DMSO = 0, JQ1 (250 nM) = −100% activity
Protocol: as §1

Row | Structure (SMILES) | EC50 (MUC1-fs; read-out: EC50) [µM] | Emax (MUC1-fs) | EC50 (MUC1-wt; read-out: WT EC50) [µM] | WT EMax (MUC1-wt) | Emax (MUC1-fs; hydrochloride) | WT EMax (MUC1-wt; hydrochloride) | EC50 (MUC1-fs; read-out: EC50(Spot)) [µM] | ECMax (%) (MUC1-fs) | EC50 (MUC1-wt; read-out: WT EC50 (Cytoplasm)) [µM] | WT ECMax (%) (MUC1-wt)
1 | NC1C2CCC(C2)C12CC1CCC2C1 (racemic) [Compound 238-B, rac-2,2′-spirobi[bicyclo[2.2.1]heptan]-3-amine] | 0.029 | −106.4 | 5.6 | 40.7 | – | – | – | – | – | –
2 | CC1CCC2(CC1C)C1CCC(C1)C2N (racemic) [Compound 240, rac-3′,4′-dimethylspiro[bicyclo[2.2.1]heptane-2,1′-cyclohexan]-3-amine] | > 16 | −34.8 | > 16 | −11.1 | – | – | – | – | – | –
3 | CC1(CC2CC2)C2CCC(C2)C1N.Cl (racemic) [Compound 243-A, rac-3-(cyclopropylmethyl)-3-methylbicyclo[2.2.1]heptan-2-amine hydrochloride] | > 16 | – | > 16 | – | −40.4 | 3.2 | – | – | – | –
4 | CC1(CC2CC2)C2CCC(C2)C1N.Cl (racemic) [Compound 244, rac-3-(cyclopropylmethyl)-3-methylbicyclo[2.2.1]heptan-2-amine hydrochloride] | > 16 | – | > 16 | – | −35.0 | −9.0 | – | – | – | –
5 | CC(C)C1(C)C2CCC(C2)C1N.Cl (racemic) [Compound 245, rac-3-isopropyl-3-methylbicyclo[2.2.1]heptan-2-amine hydrochloride] | 0.011 | −90.2 | 4.5 | 106.2 | – | – | – | – | – | –
6 | Cl.NC1C2CCC(C2)C12CC=CC2 (racemic) [Compound 248, rac-spiro[bicyclo[2.2.1]heptane-2,1′-cyclopentan]-3′-en-3-amine hydrochloride] | 0.11 | −83.1 | 9.8 | 36.5 | – | – | – | – | – | –
7 | NC1C2CCC(C2)C12CCC(O)C2 (racemic) [Compound 249A, rac-3-aminospiro[bicyclo[2.2.1]heptane-2,1′-cyclopentan]-3′-ol] | 2.2 | −98.1 | > 16 | −7.2 | – | – | – | – | – | –
8 | NC1C2CCC(C2)C12CCC(O)C2 (racemic) [Compound 249B, rac-3-aminospiro[bicyclo[2.2.1]heptane-2,1′-cyclopentan]-3′-ol] | 4.14 | −72.5 | > 16 | −6.7 | – | – | – | – | – | –
9 | NC1C2CCC(C2)C12CCC(O)C2 (racemic) [Compound 249C, rac-3-aminospiro[bicyclo[2.2.1]heptane-2,1′-cyclopentan]-3′-ol] | 6.38 | −74.4 | > 16 | −11.9 | – | – | – | – | – | –
10 | Cl.NC1(c2ccccc2)C2CCC(C2)C12CCCC2 (racemic) [Compound 250, rac-3-phenylspiro[bicyclo[2.2.1]heptane-2,1′-cyclopentan]-3-amine hydrochloride] | 7.83 | −86.3 | > 16 | 8.2 | – | – | – | – | – | –
11 | CC1(C)[C@H]2CC[C@H](C2)[C@H]1N (single isomer, unassigned) [Compound 201-P1, hydrochloride] | – | – | – | – | – | – | 0.088 | −94.91 | 10.3 | 63
12 | CC1(C)[C@@H]2CC[C@@H](C2)[C@@H]1N (single isomer, unassigned) [Compound 201-P2, hydrochloride] | – | – | – | – | – | – | 0.47 | −85.5 | 11.9 | 68.51
13 | CCC1(CC)[C@H]2CC[C@H](C2)[C@H]1N [Compound 204-P1] | – | – | – | – | – | – | 0.03 | −118.54 | 3.32 | 197.55
14 | CCC1(CC)[C@@H]2CC[C@@H](C2)[C@@H]1N [Compound 204-P2] | – | – | – | – | – | – | 0.02 | −90.34 | 1.09 | 65.02
15 | CCCCC1(C)C2CCC(C2)C1N (stereo not shown) [Compound 206-P2] | – | – | – | – | – | – | > 32 | −10.5 | > 32 | −3.86
16 | C[C@H]1CC[C@@]2(C1)[C@H]1CC[C@H](C1)[C@H]2N.Cl [Compound 210-P1-A] | – | – | – | – | – | – | 26.9 | −33.62 | > 32 | 0.73

Row | Structure (SMILES) | EC50 (MUC1-fs; read-out: EC50) [µM] | Emax (MUC1-fs) | EC50 (MUC1-wt; read-out: WT EC50) [µM] | WT EMax (MUC1-wt) | Emax (MUC1-fs; hydrochloride) | WT EMax (MUC1-wt; hydrochloride) | EC50 (MUC1-fs; read-out: EC50(Spot)) [µM] | ECMax (%) (MUC1-fs) | EC50 (MUC1-wt; read-out: WT EC50 (Cytoplasm)) [µM] | WT ECMax (%) (MUC1-wt)
17 | C[C@@H]1CC[C@@]2(C1)[C@H]1CC[C@H](C1)[C@H]2N.Cl [Compound 210-P1-B] | – | – | – | – | – | – | 15.5 | −26.85 | > 32 | −4.05
18 | C[C@@H]1CC[C@]2(C1)[C@@H]1CC[C@@H](C1)[C@@H]2N.Cl [Compound 210-P2-A] | – | – | – | – | – | – | 1.04 | −62.63 | > 32 | −8.9
19 | C[C@H]1CC[C@]2(C1)[C@@H]1CC[C@@H](C1)[C@@H]2N.Cl [Compound 210-P2-B] | – | – | – | – | – | – | 0.1 | −66.02 | > 16 | 30.21
20 | C[C@@H]1CC[C@]2(C1)[C@H]1CC[C@H](C1)[C@H]2N.Cl [Compound 211-P1-A] | – | – | – | – | – | – | 1.22 | −87.44 | > 5.6 | 9.39
21 | C[C@H]1CC[C@]2(C1)[C@H]1CC[C@H](C1)[C@H]2N.Cl [Compound 211-P1-B] | – | – | – | – | – | – | 5 | −61.55 | > 32 | 9.31
22 | C[C@H]1CC[C@@]2(C1)[C@@H]1CC[C@@H](C1)[C@@H]2N.Cl [Compound 211-P2-A] | – | – | – | – | – | – | 20.1 | −23.56 | > 32 | 3.22
23 | C[C@@H]1CC[C@@]2(C1)[C@@H]1CC[C@@H](C1)[C@@H]2N.Cl [Compound 211-P2-B] | – | – | – | – | – | – | > 32 | −10.93 | > 32 | 4.75
24 | NC1C2CCC(C2)C12CCCCC2 [Compound 212-P1, (1R,3S,4S)-spiro[bicyclo[2.2.1]heptane-3,1′-cyclohexan]-2-amine] | – | – | – | – | – | – | 1.57 | −65.18 | 3.01 | 110.73
25 | C[C@@H]1CCC[C@]2(C1)[C@H]1CC[C@H](C1)[C@H]2N.Cl [Compound 214-P1-A] | – | – | – | – | – | – | 10.5 | −26.27 | > 32 | 3.96
26 | C[C@H]1CCC[C@]2(C1)[C@H]1CC[C@H](C1)[C@H]2N.Cl [Compound 214-P1-B] | – | – | – | – | – | – | 12.1 | −58.73 | > 32 | −12.08
27 | C[C@H]1CCC[C@@]2(C1)[C@@H]1CC[C@@H](C1)[C@@H]2N.Cl [Compound 214-P2-A] | – | – | – | – | – | – | 24 | −24.69 | > 32 | −7.57
28 | C[C@@H]1CCC[C@@]2(C1)[C@@H]1CC[C@@H](C1)[C@@H]2N.Cl [Compound 214-P2-B] | – | – | – | – | – | – | 15.1 | −29.12 | > 32 | −4.96
29 | CC[C@]1(Cc2ccccc2)[C@H]2CC[C@H](C2)[C@H]1N.Cl [Compound 219-P1, (1R,2R,3S,4S)-3-benzyl-3-ethylbicyclo[2.2.1]heptan-2-amine hydrochloride] | > 16 | 5.6 | > 16 | 12.4 | – | – | – | – | – | –
30 | CC[C@@]1(Cc2ccccc2)[C@@H]2CC[C@@H](C2)[C@@H]1N.Cl [Compound 219-P2, (1S,2S,3R,4R)-3-benzyl-3-ethylbicyclo[2.2.1]heptan-2-amine hydrochloride] | > 16 | −10.3 | > 16 | 11.3 | – | – | – | – | – | –
31 | Cl.N[C@@H]1[C@@H]2CC[C@@H](C2)C12CCCC(C(=O)N1CCOCC1)C2 (stereo partly drawn) [Compound 226, ((1S,3R,4R)-3-aminospiro[bicyclo[2.2.1]heptane-2,1′-cyclohexan]-3′-yl)(morpholino)methanone hydrochloride] | > 16 | 7.8 | > 16 | 9.0 | – | – | – | – | – | –
